From patent publication US8247211B2, “Glycopeptide antibiotics” (American Cyanamid Company, priority 2001, dated 2012)
Values after ≈ are worked out from the molar mass of the structure shown.

Tests used:
Assay in all cases: In vitro antibacterial evaluation: minimum inhibitory concentration (MIC), broth dilution method
Format in all cases: cell-based
Escherichia coli = settings: 18 hours at 35° C.
In short: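 Values are minimum inhibitory concentrations, meaning the smallest antibiotic concentration that stops growth of the organism. They come from broth dilution in Muller-Hinton II […] per NCCLS guidance (M7-A2), using 5×10^5 CFU/mL and concentrations from 64 to 0.06 μg/mL.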

Enterococcus sp. = settings: 18 hours at 35° C.
In short: (§1)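 An MIC is reported for each organism as the least concentration giving inhibition, using broth dilution over 64-0.06 μg/mL with a 5×10^5 CFU/mL inoculum.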

Streptococcus sp. = settings: 18 hours at 35° C.
In short: as §1

Staphylococcus sp. = tested on: Staphylococcus sp.
In short: as §1

[1] = broth dilution, inoculum 5×10^5 CFU/mL

MIC Escherichia coli (ATCC 25922) (Escherichia coli; Escherichia coli (ATCC 25922)): 32 µg/mL (≈ 22.6 µM)
MIC Escherichia coli (GC 4559) (Escherichia coli; Escherichia coli (GC 4559)): 32 µg/mL (≈ 22.6 µM)
MIC Escherichia coli (GC 4560) (Escherichia coli; Escherichia coli (GC 4560)): 2 µg/mL (≈ 1.41 µM)
MIC Enterococcus avium (GC 4558) (Enterococcus sp.; Enterococcus avium (GC 4558)): 4 µg/mL (≈ 2.83 µM)
MIC Enterococcus faecalis (ATCC 29212) (Enterococcus sp.; Enterococcus faecalis (ATCC 29212)): 8 µg/mL (≈ 5.65 µM)
MIC Enterococcus faecalis (GC 2242) (Enterococcus sp.; Enterococcus faecalis (GC 2242)): 8 µg/mL (≈ 5.65 µM)
MIC Enterococcus faecalis (GC 2691) (Enterococcus sp.; Enterococcus faecalis (GC 2691)): 8 µg/mL (≈ 5.65 µM)
MIC Enterococcus faecalis (GC 3059) (Enterococcus sp.; Enterococcus faecalis (GC 3059)): 8 µg/mL (≈ 5.65 µM)
MIC Enterococcus faecalis (GC 4552) (Enterococcus sp.; Enterococcus faecalis (GC 4552)): 8 µg/mL (≈ 5.65 µM)
MIC Enterococcus faecalis (GC 4553) (Enterococcus sp.; Enterococcus faecalis (GC 4553)): 8 µg/mL (≈ 5.65 µM)
MIC Enterococcus faecalis (GC 4554) (Enterococcus sp.; Enterococcus faecalis (GC 4554)): 8 µg/mL (≈ 5.65 µM)
MIC Enterococcus faecalis (GC 6189) (Enterococcus sp.; Enterococcus faecalis (GC 6189)): 8 µg/mL (≈ 5.65 µM)
MIC Enterococcus faecium (GC 2243) (Enterococcus sp.; Enterococcus faecium (GC 2243)): 8 µg/mL (≈ 5.65 µM)
MIC Enterococcus faecium (GC 4556) (Enterococcus sp.; Enterococcus faecium (GC 4556)): 8 µg/mL (≈ 5.65 µM)
MIC Enterococcus faecium (GC 4557) (Enterococcus sp.; Enterococcus faecium (GC 4557)): 4 µg/mL (≈ 2.83 µM)
MIC Enterococcus avium (GC 4558) (Enterococcus sp.; [1]): 4 µg/mL (≈ 2.83 µM)
MIC Enterococcus faecalis (ATCC 29212) (Enterococcus sp.; [1]): 8 µg/mL (≈ 5.65 µM)
MIC Enterococcus faecalis (GC 2242) (Enterococcus sp.; [1]): 8 µg/mL (≈ 5.65 µM)
MIC Enterococcus faecalis (GC 2691) (Enterococcus sp.; [1]): 8 µg/mL (≈ 5.65 µM)
MIC Enterococcus faecalis (GC 3059) (Enterococcus sp.; [1]): 8 µg/mL (≈ 5.65 µM)
MIC Enterococcus faecalis (GC 4552) (Enterococcus sp.; [1]): 8 µg/mL (≈ 5.65 µM)
MIC Enterococcus faecalis (GC 4553) (Enterococcus sp.; [1]): 8 µg/mL (≈ 5.65 µM)
MIC Enterococcus faecalis (GC 4554) (Enterococcus sp.; [1]): 8 µg/mL (≈ 5.65 µM)
MIC Enterococcus faecalis (GC 6189) (Enterococcus sp.; [1]): 8 µg/mL (≈ 5.65 µM)
MIC Enterococcus faecium (GC 2243) (Enterococcus sp.; [1]): 8 µg/mL (≈ 5.65 µM)
MIC Enterococcus faecium (GC 4556) (Enterococcus sp.; [1]): 8 µg/mL (≈ 5.65 µM)
MIC Enterococcus faecium (GC 4557) (Enterococcus sp.; [1]): 4 µg/mL (≈ 2.83 µM)
MIC Streptococcus agalactiae (GC 4564) (Streptococcus sp.; Streptococcus agalactiae (GC 4564)): 1 µg/mL (≈ 0.706 µM)
MIC Streptococcus pneumoniae (ATCC 6301) (Streptococcus sp.; Streptococcus pneumoniae (ATCC 6301)): 0.5 µg/mL (≈ 0.353 µM)
MIC Streptococcus pneumoniae (GC 1894) (Streptococcus sp.; Streptococcus pneumoniae (GC 1894)): <0.06 µg/mL
MIC Streptococcus pneumoniae (GC 4565) (Streptococcus sp.; Streptococcus pneumoniae (GC 4565)): 0.25 µg/mL (≈ 0.177 µM)
MIC Streptococcus pyogenes (GC 4563) (Streptococcus sp.; Streptococcus pyogenes (GC 4563)): 1 µg/mL (≈ 0.706 µM)
MIC Streptococcus agalactiae (GC 4564) (Streptococcus sp.; [1]): 1 µg/mL (≈ 0.706 µM)
MIC Streptococcus pneumoniae (ATCC 6301) (Streptococcus sp.; [1]): 0.5 µg/mL (≈ 0.353 µM)
MIC Streptococcus pneumoniae (GC 1894) (Streptococcus sp.; [1]): <0.06 µg/mL
MIC Streptococcus pneumoniae (GC 4565) (Streptococcus sp.; [1]): 0.25 µg/mL (≈ 0.177 µM)
MIC Streptococcus pyogenes (GC 4563) (Streptococcus sp.; [1]): 1 µg/mL (≈ 0.706 µM)
MIC Staphylococcus aureus (ATCC 29213) (Staphylococcus sp.; strain ATCC 29213): 2 µg/mL (≈ 1.41 µM)
MIC Staphylococcus aureus (GC 1131) (Staphylococcus sp.; strain GC 1131): 4 µg/mL (≈ 2.83 µM)
MIC Staphylococcus aureus (GC 3051) (Staphylococcus sp.; strain GC 3051): 2 µg/mL (≈ 1.41 µM)
MIC Staphylococcus aureus (GC 3053) (Staphylococcus sp.; strain GC 3053): 4 µg/mL (≈ 2.83 µM)
MIC Staphylococcus aureus (GC 4541) (Staphylococcus sp.; strain GC 4541): 2 µg/mL (≈ 1.41 µM)
MIC Staphylococcus aureus (GC 4542) (Staphylococcus sp.; strain GC 4542): 2 µg/mL (≈ 1.41 µM)
MIC Staphylococcus aureus-SMITH (GC 4543) (Staphylococcus sp.; strain GC 4543): 2 µg/mL (≈ 1.41 µM)
MIC Staphylococcus aureus (GC 4544) (Staphylococcus sp.; strain GC 4544): 4 µg/mL (≈ 2.83 µM)
MIC Staphylococcus aureus (GC 4545) (Staphylococcus sp.; strain GC 4545): 2 µg/mL (≈ 1.41 µM)
MIC Coagulase Negative Staphylococcus (GC 4547) (Staphylococcus sp.; strain GC 4547): 2 µg/mL (≈ 1.41 µM)
MIC Coagulase Negative Staphylococcus (GC 4548) (Staphylococcus sp.; strain GC 4548): 2 µg/mL (≈ 1.41 µM)
MIC Coagulase Negative Staphylococcus (GC 4549) (Staphylococcus sp.; strain GC 4549): 2 µg/mL (≈ 1.41 µM)
MIC Coagulase Negative Staphylococcus (GC 4551) (Staphylococcus sp.; strain GC 4551): 2 µg/mL (≈ 1.41 µM)
MIC Coagulase Negative Staphylococcus (GC 6257) (Staphylococcus sp.; strain GC 6257): 1 µg/mL (≈ 0.706 µM)
Compound: CC(c1ccccc1)C1NC(=O)CNC(=O)C(CO)NC(=O)C(C(O)C2CNC(=N)N2C2OC(CO)C(O)C(O)C2O)NC(=O)C(C(O)C2CNC(=N)N2)NC(=O)C(Cc2ccc(OC3OC(CO)C(OC4OC5COC6(OC5C(O)C4O)C4CCCC6CCC4)C(O)C3O)cc2)NC1=O (stereo not drawn) [Example 212, Cyclo[glycyl-β-methylphenylalanyl-O-[4-O-(4,6-O-bicyclo[3.3.1]non-9-ylidenehexopyranosyl]hexopyranosyl]tyrosyl-3-(2-iminoimidazolidin-4-yl)seryl-3-(3-hexopyranosyl-2-iminoimidazolidin-4-yl)serylseryl]]
MIC Staphylococcus haemolyticus (GC 4546) (Staphylococcus sp.; strain GC 4546): 2 µg/mL (≈ 1.41 µM)
